Laboratory results: US20200345862A1, “TRANSITION METAL-BASED FUNCTIONAL MOIETIES FOR PREPARING CELL TARGETING CONJUGATES” (priority 2017, published 2020)
Read-outs that look alike come from different tables or passages of the source.

Conditions: HEPES pH 8.1, 47° C., 4 h
Method: To a mixture of water (101 μL) and 200 mM HEPES buffer (12.3 μL, pH 8.1) containing different concentrations of halide salts (0, 100, 500, 1000, and 2000 mM NaCl (for 4a; pH 8.1; the final concentrations of NaCl in the reaction mixtures were 0, 10, 50, 100, and 200 mM, respectively) or 0, 100, and 500 mM NaBr (for 5d; pH 8.1; the final concentrations of NaBr in the reaction mixtures were 0, 10, and 50 mM, respectively) or 0 and 100 mM NaI (for 6k; pH 8.1; the final concentrations of NaI in the reaction mixtures were 0 and 10 mM, respectively), [PtL2((Fe)DFO-suc-pip)(ethane-1,2-diamine)]^+ TFA^− (4a (L2=Cl), 5d (L2=Br) or 6k (L2=I)) (10.0 μL, 5 mM in 20 mM NaCl (4a) or 5 mM in water (5d and 6k), 5.0 eq.) was added. The samples were incubated in a thermoshaker at 47° C. for 1 h, 2 h, and 4 h, followed by the HPLC analysis at 430 nm.

Row | Substance | concentration of the semi-final product after incubation (stability) ([NaBr]=50 mM, FIG. 5) | concentration of the semi-final product after incubation (stability) ([NaI]=10 mM, FIG. 6)
1 | [(Fe)DFO-pip-PtBr(ethane-1,2-diamine)]^+ TFA^− [5d] | 95% | 
2 | [Pt((Fe)DFO-suc-pip)(ethane-1,2-diamine)I]^+ TFA^− [6k] |  | 98%
